Assay [1] has as its target HCV NS3 protease genotype 3a (3A-1) (Hepatitis C virus genotype 3a, UniProt Q81258). The experiment in a line: HCV NS3 protease time-resolved fluorescence (TRF) assay, genotype 3a. The assay is classed as biochemical. The note with it: Ki 3a. The gist of the method: (§1)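 Time-resolved fluorescence, ex 340/em 615 nm, 400 μs delay; IC50 by four-parameter fit. Enzyme preincubated with compound 10 min, then TRF substrate 25 nM final added and reaction run 6 h at RT. Buffer HEPES pH 7.5 with NaCl, glycerol, Triton X-100, DTT, PEG 8000.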

Assay [2] concerns the target T1, HCV genotype 1b (BK) NS3 modified enzyme with a R155K mutation (Hepatitis C virus genotype 1b, UniProt P26663, R1181K).
T1 construct: HCV genotype 1b (BK) NS3 modified enzyme
The experiment in a line: HCV NS3 protease time-resolved fluorescence (TRF) assay, genotype 1b R155K. The format is biochemical. The settings on record: Ki 1b R155K. The essentials: as §1

The mark [3] stands for this setting: first of two values printed in the cell (not explained).
Setting [4] is: second of two values printed in the cell (not explained).
[5] abbreviates: genotype 1b (BK) NS3 R155K, single value.

SMILES strings stand for the structures. Where a name gives a salt, the structure may show the parent alone.

As for `C=C[C@@H]1C[C@]1(NC(=O)[C@@H]1C[C@@H]2CN1C(=O)[C@H](C1CCCCC1)NC(=O)O[C@@H]1C[C@H]1CCCCCc1c(nc3ccccc3c1OC1CCCN(C)C1)O2)C(=O)NS(=O)(=O)C1(C)CC1` (stereo partly drawn) [Example 291, 3-{[(1aR,5S,8S,10R,22aR)-5-cyclohexyl-8-{[(1R,2S)-2-ethenyl-1-{[(1-methylcyclopropyl)sulfonyl]carbamoyl}cyclopropyl]carbamoyl}-3,6-dioxo-1,1a,3,4,5,6,9,10,18,19,20,21,22,22a-tetradecahydro-8H-7,10-methanocyclopropa[18,19][1,10,3,6]dioxadiazacyclononadecino[11,12-b]quinolin-17-yl]oxy}-1-methylpiperidinium formate], the values for the Ki in assay [1], in assay [2] (setting [3]) and in assay [2] (setting [4]) were 0.774 nM, 0.01 nM and 0.085 nM, respectively.

Turning to `C=C[C@@H]1C[C@]1(NC(=O)[C@@H]1C[C@@H]2CN1C(=O)[C@H](C(C)(C)C)NC(=O)O[C@@H]1C[C@H]1CCCCCc1c(nc3ccccc3c1OCCCNC1CCC1)O2)C(=O)NS(=O)(=O)C1(C)CC1` [Example 180, (1aR,5S,8S,10R,22aR)-5-tert-butyl-17-[3-(cyclobutylamino)propoxy]-N-[(1R,2S)-2-ethenyl-1-{[(1-methylcyclopropyl)sulfonyl]carbamoyl}cyclopropyl]-3,6-dioxo-1,1a,3,4,5,6,9,10, 18,19,20,21,22,22a-tetradeca hydro-8H-7,10-methanocyclopropa[18,19][1,10,3,6] dioxadiazacyclononadecino[11,12-b] quinoline-8-carboxamide], the Ki (usually a measure of affinity in units of concentration, obtained from inhibition or displacement) in assay [1] turned out to be 0.58 nM; in assay [2] (setting [5]) it was 0.037 nM.

In the case of `C=C[C@@H]1C[C@]1(NC(=O)[C@@H]1C[C@@H]2CN1C(=O)[C@H](C(C)(C)C)NC(=O)O[C@]1(C)C[C@H]1CCCCCc1c(nc3ccccc3c1OCCN1CCOCC1)O2)C(=O)NS(=O)(=O)C1CC1` [Example 100, (1aR,5S,8S,10R,22aR)-5-tert-butyl-N-{(1R,2S)-1-[(cyclopropylsulfonyl)carbamoyl]-2-ethenylcyclopropyl}-1a-methyl-17-[2-(morpholin-4-yl)ethoxy]-3,6-dioxo-1,1a,3,4,5,6,9, 10,18,19,20,21,22,22a-tetradecahydro-8H-7,10-methanocyclopropa[18,19] [1,10,3,6]dioxadiazacyclonona decino[11,12-b]quinoline-8-carboxamide], the Ki in assay [1] turned out to be 2 nM; in assay [2] (setting [5]), 0.24 nM.

For `C=C[C@@H]1C[C@]1(NC(=O)[C@@H]1C[C@@H]2CN1C(=O)[C@H](C1CCCCC1)NC(=O)O[C@@H]1C[C@H]1CCCCCc1c(nc3ccccc3c1OC1CCN(CCOC)CC1)O2)C(=O)NS(=O)(=O)C1(C)CC1` [Example 237, 4-{[(1aR,5S,8S,10R,22aR)-5-cyclohexyl-8-{[(1R,2S)-2-ethenyl-1-{[(1-methylcyclopropyl)sulfonyl]carbamoyl}cyclopropyl]carbamoyl}-3,6-dioxo-1,1a,3,4,5,6,9,10,18,19,20,21,22,22a-tetradecahydro-8H-7,10-methanocyclopropa[18,19][1,10,3,6]dioxadiazacyclononadecino[11,12-b]quinolin-17-yl]oxy}-1-(2-methoxyethyl)piperidinium formate], the Ki was found to be 0.8 nM in assay [1], 0.013 nM in assay [2] (setting [3]) and 0.098 nM in assay [2] (setting [4]).

In the case of `C=C[C@@H]1C[C@]1(NC(=O)[C@@H]1C[C@@H]2CN1C(=O)[C@H](C1CCCC1)NC(=O)O[C@@H]1C[C@H]1CCCCCc1c(nc3ccccc3c1OC)O2)C(=O)NS(=O)(=O)C1CC1` [Example 28, (1aR,5S,8S,10R,22aR)-5-cyclo pentyl-N-{(1R,2S)-1-[(cyclopropylsulfonyl)carbamoyl]-2-ethenylcyclopropyl}-17-methoxy-3,6-dioxo-1,1a, 3,4,5,6,9,10,18,19,20,21,22,22a-tetradecahydro-8H-7,10-methanocyclopropa[18,19][1,10,3,6] dioxadiazacyclononadecino[11,12-b]quinoline-8-carboxamide], the Ki in assay [1] turned out to be 35 nM; in assay [2] (setting [5]), 0.7 nM.

With `C=C[C@@H]1C[C@]1(NC(=O)[C@@H]1C[C@@H]2CN1C(=O)[C@H](C1CCCC1)NC(=O)O[C@@H]1CCC[C@H]1CC/C=C/Cc1c(nc3ccccc3c1OCc1ccccc1)O2)C(=O)NS(=O)(=O)C1CC1` [Example 8, (3aR,7S,10S,12R,21E,24aS)-19-(benzyloxy)-7-cyclopentyl-N-{(1R,2S)-1-[(cyclopropylsulfonyl)carbamoyl]-2-ethenylcyclopropyl}-5,8-dioxo-1,2,3,3a,5,6,7,8,11,12,20,23,24,24a-tetradecahydro-10H-9,12-methanocyclopenta[18,19][1,10,3,6] dioxadiazacyclononadecino[11,12-b]quinoline-10-carboxamide], the Ki in assay [1] worked out at 51 nM; in assay [2] (setting [5]), 1.6 nM.

For `C=C[C@@H]1C[C@]1(NC(=O)[C@@H]1C[C@@H]2CN1C(=O)[C@H](C(C)C)NC(=O)O[C@@H]1C[C@H]1CCCCCc1c(nc3ccccc3c1OCCN1CCOCC1)O2)C(=O)NS(=O)(=O)C1(C)CC1` [Example 124, (1aR,5S,8S,10R,22aR)-N-[(1R,2S)-2-ethenyl-1-{[(1-methylcyclopropyl)sulfonyl]carbamoyl}cyclopropyl]-17-[2-(morpholin-4-yl)ethoxy]-3,6-dioxo-5-(propan-2-yl)-1,1a,3,4,5,6,9,10,18,19,20,21,22,22a-tetradeca hydro-8H-7,10-methano cyclopropa[18,19][1,10,3,6] dioxadiazacyclonona decino[11,12-b]quinoline-8-carboxamide], the Ki in assay [1] worked out at 10 nM; in assay [2] (setting [5]), 0.79 nM.

As to `C=C[C@@H]1C[C@]1(NC(=O)[C@@H]1C[C@@H]2CN1C(=O)[C@H](C(C)(C)C)NC(=O)O[C@@H]1C[C@H]1CCCCCc1c(nc3ccccc3c1OC[C@@H]1CCN(C(=O)OC(C)(C)C)C1)O2)C(=O)NS(=O)(=O)C1(C)CC1` [Example 138, tert-butyl (3R)-3-({[(1aR,5S,8S,10R, 22aR)-5-tert-butyl-8-{[(1R,2S)-2-ethenyl-1-{[(1-methylcyclopropyl)sulfonyl]carbamoyl}cyclopropyl]carbamoyl}-3,6-dioxo-1,1a,3,4,5,6,9,10,18,19,20, 21,22,22a-tetradeca hydro-8H-7,10-methanocyclopropa [18,19][1,10,3,6]dioxadiazacyclononadecino[11,12-b]quinolin-17-yl]oxy}methyl)pyrrolidine-1-carboxylate], the Ki amounted to 7 nM in assay [1] and 0.63 nM in assay [2] (setting [5]).

With `C=C[C@@H]1C[C@]1(NC(=O)[C@@H]1C[C@@H]2CN1C(=O)[C@H](C(C)(C)C)NC(=O)O[C@@H]1C[C@H]1CCCCCc1c(nc3c(OC)cccc3c1OCCCN1CCCC1)O2)C(=O)NS(=O)(=O)C1(C)CC1` [Example 143, (1aR,5S,8S,10R,22aR)-5-tert-butyl-N-[(1R,2S)-2-ethenyl-1-{[(1-methylcyclopropyl)sulfonyl]carbamoyl}cyclopropyl]-13-methoxy-3,6-dioxo-17-[3-(pyrrolidin-1-yl)propoxy]-1,1a,3,4,5,6,9,10,18,19,20,21,22,22a-tetradecahydro-8H-7,10-methanocyclopropa[18,19][1,10,3,6]dioxadiazacyclononadecino[11,12-b]quinoline-8-carboxamide], the Ki came to 0.64 nM in assay [1] and 0.059 nM in assay [2] (setting [5]).

On to `C=C[C@@H]1C[C@]1(NC(=O)[C@@H]1C[C@@H]2CN1C(=O)[C@H](C(C)(C)C)NC(=O)O[C@@H]1C[C@H]1CCCCCc1c(nc3cc(C)ccc3c1OCCCN1CCOCC1)O2)C(=O)NS(=O)(=O)C1(C)CC1` [Example 147, (1aR,S,8S,10R,22aR)-5-tert-butyl-N-[(1R,2S)-2-ethenyl-1-{[(1-methylcyclopropyl)sulfonyl]carbamoyl}cyclopropyl]-14-methyl-17-[3-(morpholin-4-yl)propoxy]-3,6-dioxo-1,1a,3,4,5,6,9, 10,18,19,20,21,22,22a-tetradecahydro-8H-7,10-methanocyclopropa[18,19] [1,10,3,6]dioxadiaza cyclononadecino[11,12-b] quinoline-8-carboxamide], for which the Ki in assay [1] worked out at 2.2 nM; in assay [2] (setting [5]) it was 0.26 nM.

`C=C[C@@H]1C[C@]1(NC(=O)[C@@H]1C[C@@H]2CN1C(=O)[C@H](C1CCCC1)NC(=O)O[C@@H]1CCC[C@H]1CC/C=C/Cc1c(nc3ccccc3c1OCCCOCCOC)O2)C(=O)NS(=O)(=O)C1CC1` [Example 47, (3aR,7S,10S,12R,21E,24aS)-7-cyclopentyl-N-{(1R,2S)-1-[(cyclopropylsulfonyl)carbamoyl]-2-ethenylcyclopropyl}-19-[3-(2-methoxyethoxy)propoxy]-5,8-dioxo-1,2,3,3a,5,6,7,8,11,12,20,23,24,24a-tetradeca-hydro-10H-9,12-methanocyclopenta[18,19] [1,10,3,6]dioxadiazacyclononadecino[11, 12-b]quinoline-10-carboxamide]: the Ki in assay [1] came to 2.9 nM; in assay [2] (setting [5]), 0.12 nM.

`C=C[C@@H]1C[C@]1(NC(=O)[C@@H]1C[C@@H]2CN1C(=O)[C@H](C(C)(C)C)NC(=O)O[C@@H]1C[C@H]1CCCCCc1c(nc3ccccc3c1OCCCN1CC3(CCC3)C1)O2)C(=O)NS(=O)(=O)C1(C)CC1` [Example 154, (1aR,5S,8S,10R,22aR)-17-[3-(2-azaspiro[3.3]hept-2-yl)propoxy]-5-tert-butyl-N-[(1R,2S)-2-ethenyl-1-{[(1-methylcyclopropyl)sulfonyl]carbamoyl}cyclopropyl]-3,6-dioxo-1,1a,3,4,5,6,9,10,18,19,20, 21,22,22a-tetradecahydro-8H-7,10-methanocyclopropa[18,19] [1,10,3,6]dioxadiazacyclononadecino [11,12-b]quinoline-8-carboxamide]: the Ki stood at 1.5 nM in assay [1] and 0.11 nM in assay [2] (setting [5]).

The values above are taken from patent publication US9328138B2 (priority 2011, dated 2016).
